assay: Inhibition of [3H]choline brain uptake through choline transporter was determined in situ brain perfusion studies in Male Fischer-344 rats

Compound	Ki [µM]
CCCCCCCC[N+](C)(C)CCO [(2-Hydroxy-ethyl)-dimethyl-octyl-ammonium]	2.1

assay: as above; remark: another data set of the same source

Compound	Ki [µM]
C[N+](C)(C)CCCCO	> 10000
C[N+](C)(C)CCCO	162
CC[N+](CC)(CC)CCO	1900
CCN1CC=C(C(C)=O)CC1 [1-(1-Ethyl-1,2,3,6-tetrahydro-pyridin-4-yl)-ethanone]	> 10000
CC(=O)C1=CCC(CCc2ccccc2)CC1 (configuration not stated) [1-(4-Phenethyl-cyclohex-1-enyl)-ethanone]	495
CCCCCCCCN1CCCCC1 [1-Octyl-piperidine]	32
CN(C)C1CCCCC1O (configuration not stated) [2-Dimethylamino-cyclohexanol]	> 10000
CSCCO [2-Methylsulfanyl-ethanol]	> 10000
OCCCN1CCN(Cc2cccnc2)CC1 [3-(4-Pyridin-3-ylmethyl-piperazin-1-yl)-propan-1-ol]	> 10000
C[N+](C)(CCO)c1ccccc1 [(2-Hydroxy-ethyl)-dimethyl-phenyl-ammonium]	> 10000
CCC[N+](C)(C)CCO [(2-Hydroxy-ethyl)-dimethyl-propyl-ammonium]	190
C[N+](C)(CCO)c1ccc(F)cc1 [(4-Fluoro-phenyl)-(2-hydroxy-ethyl)-dimethyl-ammonium]	737
CCCC[N+](C)(C)CCO [Butyl-(2-hydroxy-ethyl)-dimethyl-ammonium]	40
CC[N+](C)(C)CCO [Ethyl-(2-hydroxy-ethyl)-dimethyl-ammonium]	94
CC[N+](C)(C)C [Ethyl-trimethyl-ammonium]	4700
CC(O)C[N+](C)(C)C (stereo not drawn) [beta-methylcholine]	200

— BindingDB's records for doi:10.1016/j.bmcl.2004.04.020 (Texas Tech University Health Sciences Center, 2004)
